{
  "source": "patent US20160082087A1",
  "about": "“WHITENING PROMOTING AGENT OR ATOPIC DERMATITIS AMELIORATING AGENT” (NITTA GELATIN INC., priority 2013, published 2016)",
  "format_in_all_cases": "cell-based, human",
  "key": {"endoserine-1 (ET-1)": {"system": "endoserine-1 (ET-1)", "test": "ET-1 expression suppression test (real time PCR)", "conditions": "0.5 mM, 24 hours, NHEK (NB), control 1.00, GAPDH corrected", "experimental": "(§1) A normal human epidermal keratinocyte NHEK (NB) (available from KURABO INDUSTRIES LTD.) was used. The cells were precultured in HuMedia-KG2 (available from KURABO INDUSTRIES LTD.), and 1.5×10^4 cells/mL×5 mL (7.5×10^4 cells/dish) were cultured in a 60 mm laboratory dish for two days. After confirming that the cells were subconfluent, the medium was replaced by 5 mL of HuMedia-KB2 (available from KURABO INDUSTRIES LTD.). Samples were added in respective concentrations, and allowed to react for 24 hours (ET-1, K10), 48 hours (TGM1, ivl, HAS2), and 72 hours (FLG). Total RNA was extracted from the cells, reverse transcribed, and subjected to real time PCR. In the real time PCR, as target genes, endoserine-1 (ET-1; Hs00174961_m1), keratin 10 (K10; Hs01043114_g1), transglutaminase 1 (TGM1; Hs01070310_m1), involucrin (ivl; Hs00846307_s1), filaggrin (FLG; Hs00856927_g1) and hyaluronic acid synthase 2 (HAS2; Hs00193435_m1) were measured. GAPDH was used as a correction gene. Calculation was conducted by using a calibration curve method, and FAM pigment of TaqMan Gene Expression was used in primers and probes.\n(§2) For each peptide or the like of Examples 1 to 13 and Comparative Examples 1 to 27, RNA expression amounts of endoserine-1 (ET-1), keratin 10 (K10), transglutaminase 1 (TGM1), involucrin (ivl), filaggrin (FLG) and hyaluronic acid synthase 2 (HAS2) were measured. Values in the tables are each average value±standard deviation, and *, ** and *** denote that they are significant with P<0.05, P<0.01, and P<0.001, respectively with respect to the control in Paired-t-test."}, "keratin 10 (K10)": {"system": "keratin 10 (K10)", "test": "K10 expression promotion test (real time PCR)", "conditions": "0.5 mM, 24 hours, NHEK (NB), control 1.00, GAPDH corrected", "experimental": "as §1, §2"}, "[1]": {"system": "transglutaminase 1 (TGM1)", "test": "TGM1 expression promotion test (real time PCR)", "conditions": "0.5 mM, 48 hours, NHEK (NB), control 1.00, GAPDH corrected", "experimental": "as §1, §2"}, "involucrin (ivl)": {"system": "involucrin (ivl)", "test": "ivl expression promotion test (real time PCR)", "conditions": "0.5 mM, 48 hours, NHEK (NB), control 1.00, GAPDH corrected", "experimental": "as §1, §2"}, "filaggrin (FLG)": {"system": "filaggrin (FLG)", "test": "FLG expression promotion test (real time PCR)", "conditions": "0.5 mM, 72 hours, NHEK (NB), control 1.00, GAPDH corrected", "experimental": "as §1, §2"}, "[2]": {"system": "hyaluronic acid synthase 2 (HAS2)", "test": "HAS2 expression promotion test (real time PCR)", "conditions": "0.5 mM, 48 hours, NHEK (NB), control 1.00, GAPDH corrected", "experimental": "as §1, §2"}},
  "note": "Marks after values point to notes of the source that are not given here.",
  "data": [
    {"substance": "(Pro-Hyp-Gly)5 [Example 1]", "values": [
      {"measurement": "Endoserine-I RNA expression amount", "setting": "endoserine-1 (ET-1)", "result": "0.32 ± 0.00*"},
      {"measurement": "Keratin 10 RNA expression amount", "setting": "keratin 10 (K10)", "result": "6.40 ± 0.06"},
      {"measurement": "Transglutaminase 1 RNA expression amount", "setting": "[1]", "result": "13.50 ± 2.69**"},
      {"measurement": "Involucrin RNA expression amount", "setting": "involucrin (ivl)", "result": "7.96 ± 0.60**"},
      {"measurement": "Filaggrin RNA expression amount", "setting": "filaggrin (FLG)", "result": "11.23 ± 1.56***"},
      {"measurement": "Hyaluronic acid synthase 2 RNA expression amount", "setting": "[2]", "result": "3.45 ± 1.02**"}
    ]}
  ]
}
